Data on nine compounds can be found in PubChem BioAssay AID180 (DTP/NCI, 2004).

Several values for one entry are separate records, joined by “and”; a condition that tells them apart may be missing. Identical values can stand only once.

This test deals with BDF1 mice, Adenocarcinoma 755 s.c., tumor weight T/C. Put plainly: NCI In Vivo Anticancer Drug Screen. Data for tumor model Adenocarcinoma 755 (subcutaneous) in B6D2F1 (BDF1) mice. Conditions: endpoint: mean tumor weight, higher = larger tumour. The procedure, abridged: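 In vivo antitumor screen on a transplantable tumor line. Result equals the measure in compound-treated animals divided by the same measure in vehicle controls.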

The mark [1] stands for this setting: dose: 60.0 mg/kg/injection, schedule: Q01DX011 (ip), vehicle: carboxymethylcellulose (CMC).
[2] abbreviates: dose: 120.0 mg/kg/injection, schedule: Q01DX011 (ip), vehicle: carboxymethylcellulose (CMC).
The mark [3] stands for this setting: dose: 50.0 mg/kg/injection, schedule: Q01DX011 (ip), vehicle: saline.
The mark [4] stands for this setting: dose: 100.0 mg/kg/injection, schedule: Q01DX011 (ip), vehicle: saline.

Turning to `Cn1cnc([N+](=O)[O-])c1Sc1nc(N)nc2nc[nH]c12`, the T/C was 76 % of control (dose: 0.04 mg/kg/injection, schedule: Q01DX011 (ip), vehicle: alkali diluted with saline); 84 % of control (dose: 0.07 mg/kg/injection, schedule: Q01DX011 (ip), vehicle: methylcellulose (MC)); 72 % of control (dose: 0.08 mg/kg/injection, schedule: Q01DX011 (ip), vehicle: alkali diluted with saline); 86 % of control (dose: 0.13 mg/kg/injection, schedule: Q01DX011 (ip), vehicle: methylcellulose (MC)); 102 % of control (dose: 0.16 mg/kg/injection, schedule: Q01DX011 (ip), vehicle: alkali diluted with saline); 30 % of control (dose: 0.2 mg/kg/injection, schedule: Q01DX011 (ip), vehicle: methylcellulose (MC)). Also, the T/C is, setting by setting: (dose: 0.25 mg/kg/injection, schedule: Q01DX011 (ip), vehicle: distilled water + alcohol) 29 % of control; (dose: 0.25 mg/kg/injection, schedule: Q01DX011 (ip), vehicle: methylcellulose (MC)) 65 % of control; (dose: 0.32 mg/kg/injection, schedule: Q01DX011 (ip), vehicle: alkali diluted with saline) 82 % of control; (dose: 0.32 mg/kg/injection, schedule: Q01DX011 (ip), vehicle: saline) 102 % of control; (dose: 0.39 mg/kg/injection, schedule: Q01DX011 (ip), vehicle: methylcellulose (MC)) 8 % of control; (dose: 0.52 mg/kg/injection, schedule: Q01DX011 (ip), vehicle: distilled water + alcohol) 18 % of control. The T/C is, setting by setting: (dose: 0.62 mg/kg/injection, schedule: Q01DX011 (oral), vehicle: saline) 89 % of control; (dose: 0.63 mg/kg/injection, schedule: Q01DX011 (ip), vehicle: alkali diluted with saline) 41 % of control; (dose: 0.63 mg/kg/injection, schedule: Q01DX011 (ip), vehicle: saline) 46 % of control; (dose: 0.78 mg/kg/injection, schedule: Q01DX011 (ip), vehicle: methylcellulose (MC)) 7 % of control; (dose: 1.0 mg/kg/injection, schedule: Q01DX011 (ip), vehicle: methylcellulose (MC)) 27 % of control; (dose: 1.05 mg/kg/injection, schedule: Q01DX011 (ip), vehicle: distilled water + alcohol) 5 % of control. Further, the T/C reads like this: (dose: 1.25 mg/kg/injection, schedule: Q01DX011 (ip), vehicle: alkali diluted with saline) 2 % of control; (dose: 1.25 mg/kg/injection, schedule: Q01DX011 (ip), vehicle: saline) 4 % of control; (dose: 1.25 mg/kg/injection, schedule: Q01DX011 (oral), vehicle: saline) 36 % of control; (dose: 1.56 mg/kg/injection, schedule: Q01DX011 (ip), vehicle: methylcellulose (MC)) 5 % of control; (dose: 2.08 mg/kg/injection, schedule: Q01DX011 (ip), vehicle: distilled water + alcohol) 6 % of control; (dose: 2.5 mg/kg/injection, schedule: Q01DX011 (ip), vehicle: alkali diluted with saline) 1 % of control. The T/C (dose: 2.5 mg/kg/injection, schedule: Q01DX011 (ip), vehicle: methylcellulose (MC)) was 4 % of control; the T/C (dose: 2.5 mg/kg/injection, schedule: Q01DX011 (ip), vehicle: saline) is 3 % of control; the T/C (dose: 2.5 mg/kg/injection, schedule: Q01DX011 (oral), vehicle: saline) was 8 % of control; the T/C (dose: 3.12 mg/kg/injection, schedule: Q01DX011 (ip), vehicle: methylcellulose (MC)) was 2 % of control; the T/C (dose: 4.19 mg/kg/injection, schedule: Q01DX011 (ip), vehicle: distilled water + alcohol) was 2 % of control; the T/C (dose: 5.0 mg/kg/injection, schedule: Q01DX011 (ip), vehicle: saline) is 1 % of control. For the same compound, the T/C by setting is: (dose: 5.0 mg/kg/injection, schedule: Q01DX011 (oral), vehicle: saline) 5 % of control; (dose: 6.25 mg/kg/injection, schedule: Q01DX011 (ip), vehicle: methylcellulose (MC)) 2 % of control; (dose: 10.0 mg/kg/injection, schedule: Q01DX011 (ip), vehicle: saline) 1 % of control; (dose: 12.5 mg/kg/injection, schedule: Q01DX011 (ip), vehicle: methylcellulose (MC)) 1 % of control.
Consider `Nc1[nH]cnc(=S)c1NC=O`, for which the T/C (dose: 30.0 mg/kg/injection, schedule: Q01DX011 (ip), vehicle: carboxymethylcellulose (CMC)) is 84 % of control; the T/C under setting [1] is 63 % of control; the T/C under setting [2] is 86 % of control; the T/C (dose: 200.0 mg/kg/injection, schedule: Q01DX011 (ip), vehicle: carboxymethylcellulose (CMC)) was 101 % of control; the T/C (dose: 240.0 mg/kg/injection, schedule: Q01DX011 (ip), vehicle: carboxymethylcellulose (CMC)) was 26 % of control; the T/C (dose: 400.0 mg/kg/injection, schedule: Q01DX011 (ip), vehicle: carboxymethylcellulose (CMC)) is 29 % of control.
Take `C[C@]12CCC(=O)C=C1CC[C@@H]1[C@@H]2[C@@H](O)C[C@@]2(C)[C@H]1CC[C@]2(O)C(=O)CF`: the T/C (dose: 50.0 mg/kg/injection, schedule: Q01DX011 (sc), vehicle: steriod suspending solution) is 21 % of control; the T/C (dose: 100.0 mg/kg/injection, schedule: Q01DX011 (sc), vehicle: steriod suspending solution) was 16 % of control; the T/C (dose: 200.0 mg/kg/injection, schedule: Q01DX011 (sc), vehicle: steriod suspending solution) is 6 % of control and 10 % of control; the T/C (dose: 400.0 mg/kg/injection, schedule: Q01DX011 (sc), vehicle: steriod suspending solution) is 7 % of control and 9 % of control; the T/C (dose: 600.0 mg/kg/injection, schedule: Q01DX011 (sc), vehicle: steriod suspending solution) is 9 % of control.
For the compound `Cn1c(=O)c2c(ncn2CCCO)n(C)c1=O`, the T/C is 61 % of control (dose: 75.0 mg/kg/injection, schedule: Q01DX011 (ip), vehicle: carboxymethylcellulose (CMC)) and 65 % of control (dose: 225.0 mg/kg/injection, schedule: Q01DX011 (ip), vehicle: carboxymethylcellulose (CMC)).
For `COC1C(OC(N)=O)C(O)C(Oc2ccc3c(O)c(NC(=O)c4ccc(O)c(CC=C(C)C)c4)c(=O)oc3c2C)OC1(C)C` (stereo unspecified), the T/C under setting [3] was 78 % of control; the T/C under setting [4] is 42 % of control; the T/C (dose: 200.0 mg/kg/injection, schedule: Q01DX011 (ip), vehicle: saline) was 60 % of control.
As for `O=C(OCC1OC(n2cnc3c(=O)[nH]cnc32)CC1OC(=O)c1ccccc1)c1ccccc1` (stereo unspecified), the T/C reads like this: under setting [1], 101 % of control; under setting [2], 90 % of control.
`O=C(O)C(=O)O.[U]`: the T/C (dose: 12.5 mg/kg/injection, schedule: Q01DX011 (ip), vehicle: other) was 73 % of control; the T/C (dose: 12.5 mg/kg/injection, schedule: Q01DX011 (ip), vehicle: saline) is 68 % of control; the T/C (dose: 25.0 mg/kg/injection, schedule: Q01DX011 (ip), vehicle: other) was 50 % of control; the T/C (dose: 25.0 mg/kg/injection, schedule: Q01DX011 (ip), vehicle: saline) was 39 % of control; the T/C (dose: 50.0 mg/kg/injection, schedule: Q01DX011 (ip), vehicle: other) was 49 % of control; the T/C under setting [3] was 36 % of control. In addition, the T/C under setting [4] is 25 % of control.
Consider `Nc1nc(NC2CCCCC2)cc(=O)[nH]1`, for which the T/C is, setting by setting: (dose: 50.0 mg/kg/injection, schedule: Q01DX011 (ip), vehicle: methylcellulose (MC)) 56 % of control; (dose: 100.0 mg/kg/injection, schedule: Q01DX011 (ip), vehicle: methylcellulose (MC)) 55 % of control; (dose: 200.0 mg/kg/injection, schedule: Q01DX011 (ip), vehicle: methylcellulose (MC)) 51 % of control; (dose: 400.0 mg/kg/injection, schedule: Q01DX011 (ip), vehicle: methylcellulose (MC)) 33 % of control.
As for `CC(=O)O[C@]1(C(C)=O)CC[C@H]2[C@@H]3C[C@H](C)C4=CC(=O)C=C[C@]4(C)[C@@]3(F)[C@@H](O)C[C@@]21C`, the T/C is 95 % of control (dose: 4.5 mg/kg/injection, schedule: Q01DX011 (sc), vehicle: steriod suspending solution); 60 % of control (dose: 9.0 mg/kg/injection, schedule: Q01DX011 (sc), vehicle: steriod suspending solution); 54 % of control (dose: 15.0 mg/kg/injection, schedule: Q01DX011 (sc), vehicle: steriod suspending solution); 34 % of control (dose: 18.0 mg/kg/injection, schedule: Q01DX011 (sc), vehicle: steriod suspending solution); 34 % of control (dose: 30.0 mg/kg/injection, schedule: Q01DX011 (sc), vehicle: steriod suspending solution); 19 % of control (dose: 60.0 mg/kg/injection, schedule: Q01DX011 (sc), vehicle: steriod suspending solution). The T/C by setting is: (dose: 120.0 mg/kg/injection, schedule: Q01DX011 (sc), vehicle: steriod suspending solution) 8 % of control; (dose: 136.0 mg/kg/injection, schedule: Q01DX011 (sc), vehicle: steriod suspending solution) 17 % of control.
